Measurements taken from patent US9290451B2 (Hoffmann-La Roche Inc., priority 2011, dated 2016).
Read-outs that look alike come from different tables or passages of the source.

Columns and labels:
human CB1 receptors = human CB1 receptors (Homo sapiens (Human), UniProt P21554); test: cAMP assay, CHO cells expressing human CB1 receptors; format: cell-based
Summary of the method: (§1)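 In this cellular cAMP test, IBMX (1 mM) blocked phosphodiesterase during a 30-min, 30 °C compound exposure. Accumulated cAMP was measured by a lysis-based TR-FRET kit and interpolated from a standard curve to give EC50.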

human CB2 receptors = human CB2 receptors (Homo sapiens (Human), UniProt P34972); test: cAMP assay, CHO cells expressing human CB2 receptors; format: cell-based
Sequence of human CB2 receptors (P34972 whole entry): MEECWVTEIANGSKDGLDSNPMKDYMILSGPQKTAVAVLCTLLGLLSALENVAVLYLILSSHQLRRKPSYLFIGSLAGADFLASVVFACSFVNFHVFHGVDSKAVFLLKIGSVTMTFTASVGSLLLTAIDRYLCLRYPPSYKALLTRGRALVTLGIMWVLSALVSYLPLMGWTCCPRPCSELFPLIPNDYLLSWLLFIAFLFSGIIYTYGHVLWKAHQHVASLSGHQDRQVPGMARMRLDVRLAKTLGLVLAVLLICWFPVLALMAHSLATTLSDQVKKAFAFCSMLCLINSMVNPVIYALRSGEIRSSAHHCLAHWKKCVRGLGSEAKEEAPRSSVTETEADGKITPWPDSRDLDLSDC
Summary of the method: as §1

[1] = CHO cells expressing human CB1, cAMP, read-out: human CB1 EC50
[2] = CHO cells expressing human CB2, cAMP, read-out: human CB2 EC50

Sequence of human CB1 receptors (P21554 whole entry): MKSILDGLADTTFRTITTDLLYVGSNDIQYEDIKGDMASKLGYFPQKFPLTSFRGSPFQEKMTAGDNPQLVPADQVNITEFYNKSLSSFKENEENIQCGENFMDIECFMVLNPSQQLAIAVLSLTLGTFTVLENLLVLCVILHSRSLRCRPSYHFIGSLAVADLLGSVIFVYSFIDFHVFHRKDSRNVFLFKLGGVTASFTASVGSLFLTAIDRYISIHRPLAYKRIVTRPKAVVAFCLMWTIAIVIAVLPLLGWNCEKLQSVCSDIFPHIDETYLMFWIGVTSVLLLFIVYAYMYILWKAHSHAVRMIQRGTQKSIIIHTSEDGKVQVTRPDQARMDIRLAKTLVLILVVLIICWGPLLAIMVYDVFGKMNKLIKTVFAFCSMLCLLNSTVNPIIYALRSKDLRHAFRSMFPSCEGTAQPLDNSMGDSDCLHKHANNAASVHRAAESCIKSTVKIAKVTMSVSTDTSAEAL

| Structure (SMILES) | EC50 (human CB1 receptors; [1]) [nM] | EC50 (human CB2 receptors; [2]) [nM] | EC50 (human CB1 receptors) [nM] | EC50 (human CB2 receptors) [nM] |
| --- | --- | --- | --- | --- |
| O=C(N[C@H](c1cccnc1)C(F)(F)F)c1ccc(C2CC2)c(OCC2CC2)n1 [Example 218, (R)-5-Cyclopropyl-6-(cyclopropylmethoxy)-N-(2,2,2-trifluoro-1-(pyridin-3-yl)ethyl)-picolinamide] | > 10000 | 24.1 | – | – |
| O=C(NC1CCOCC1)c1cccc(-c2cccc(Cl)c2)n1 [Example 21, 6-(3-Chloro-phenyl)-pyridine-2-carboxylic acid (tetrahydro-pyran-4-yl)-amide] | > 10000 | 220 | – | – |
| CCOC(=O)C(CC)(CC)NC(=O)c1ccc(Br)c(OCC2CC2)n1 [Example 265, 2-[(5-Bromo-6-cyclopropylmethoxy-pyridine-2-carbonyl)-amino]-2-ethyl-butyric acid ethyl ester] | > 10000 | 2.8 | – | – |
| CCC(CC)(NC(=O)c1ccc(C2CC2)c(OCC2CCCO2)n1)C(=O)OC (stereo not shown) [Example 233, 2-{[5-Cyclopropyl-6-(tetrahydro-furan-2-ylmethoxy)-pyridine-2-carbonyl]-amino}-2-ethyl-butyric acid methyl ester] | 71 | 0.1 | – | – |
| CC(C)C[C@H](NC(=O)c1ccc(C2CC2)c(OCC2CC2)n1)C(=O)N(C)C [Example 231, 5-Cyclopropyl-6-cyclopropylmethoxy-pyridine-2-carboxylic acid ((S)-1-dimethylcarbamoyl-3-methyl-butyl)-amide] | 678 | 1.4 | – | – |
| Cc1nc([C@H](CC2CC2)NC(=O)c2cccc(-c3ccc(F)c(C(F)(F)F)c3)n2)no1 [Example 348, 6-(4-Fluoro-3-trifluoromethyl-phenyl)-pyridine-2-carboxylic acid [(S)-2-cyclopropyl-1-(5-methyl-[1,2,4]oxadiazol-3-yl)-ethyl]-amide] | > 10000 | 24.6 | – | – |
| COC(=O)C(C)(C)NC(=O)c1ccc(C2CCOCC2)c(OCC2CC2)n1 [Example 9, 2-{[6-Cyclopropylmethoxy-5-(tetrahydro-pyran-4-yl)-pyridine-2-carbonyl]-amino}-2-methyl-propionic acid methyl ester] | > 10000 | 55.8 | – | – |
| CCC(CC)(NC(=O)c1ccc(N2CC(F)(F)C2=O)c(OCC2CC2)n1)C(=O)OC [Example 269, 2-{[6-Cyclopropylmethoxy-5-(3,3-difluoro-2-oxo-azetidin-1-yl)-pyridine-2-carbonyl]-amino}-2-ethyl-butyric acid methyl ester] | > 10000 | 47.3 | – | – |
| CNC(=O)[C@@H](NC(=O)c1cccc(-c2cccc(C(F)(F)F)c2)n1)C(C)(C)C [Example 214, (S)-N-(3,3-Dimethyl-1-(methylamino)-1-oxobutan-2-yl)-6-(3-(trifluoromethyl)phenyl)-picolinamide] | 1630 | 53.7 | – | – |
| CC(C)(NC(=O)c1ccc(C2CC2)c(-c2cccc(Cl)c2)n1)c1ncco1 [Example 95, 6-(3-Chloro-phenyl)-5-cyclopropyl-pyridine-2-carboxylic acid (1-methyl-1-oxazol-2-yl-ethyl)-amide] | > 10000 | 83.9 | – | – |
| O=C(NN1CCCCC1)c1cccc(C2CCCCC2)n1 [Example 24, 6-Cyclohexyl-pyridine-2-carboxylic acid piperidin-1-ylamide] | > 10000 | 15.6 | – | – |
| NC(=O)[C@H](CC1CC1)NC(=O)c1ccc(N(CC(F)(F)F)CC(F)(F)F)c(OCC2CC2)n1 [Example 162, 5-[Bis-(2,2,2-trifluoro-ethyl)-amino]-6-cyclopropylmethoxy-pyridine-2-carboxylic acid ((S)-1-carbamoyl-2-cyclopropyl-ethyl)-amide] | 674 | 54.4 | – | – |
| CC(C)(NC(=O)c1ccc(C2CC2)c(OCC2CC2)n1)c1nccs1 [Example 44, 5-Cyclopropyl-6-cyclopropylmethoxy-pyridine-2-carboxylic acid (1-methyl-1-thiazol-2-yl-ethyl)-amide] | 1610 | 13.5 | – | – |
| CCC(CC)(NC(=O)c1ccc(C(F)(F)F)c(OCC2CCOCC2)n1)C(=O)OC [Example 238, 2-Ethyl-2-{[6-(tetrahydro-pyran-4-ylmethoxy)-5-trifluoromethyl-pyridine-2-carbonyl]-amino}-butyric acid methyl ester] | 146 | 0.4 | – | – |
| C[C@@H](C#N)NC(=O)c1ccc(C2CC2)c(OCC2CC2)n1 [Example 246, 5-Cyclopropyl-6-cyclopropylmethoxy-pyridine-2-carboxylic acid ((−)-cyano-methyl-methyl)-amide] | 2470 | 215 | – | – |
| Cc1nc([C@@H](CC(C)C)NC(=O)c2ccc(C3CC3)c(OCC3CC3)n2)no1 [Example 243, 5-Cyclopropyl-6-cyclopropylmethoxy-pyridine-2-carboxylic acid [(−)-3-methyl-1-(5-methyl-[1,2,4]oxadiazol-3-yl)-butyl]-amide] | 830 | 22.1 | – | – |

| Structure (SMILES) | EC50 (human CB1 receptors; [1]) [nM] | EC50 (human CB2 receptors; [2]) [nM] | EC50 (human CB1 receptors) [nM] | EC50 (human CB2 receptors) [nM] |
| --- | --- | --- | --- | --- |
| CC1(COc2nc(C(=O)NC(c3ccccn3)C(F)(F)F)ccc2Br)COC1 (stereo not shown) [Example 283, 5-Bromo-6-(3-methyl-oxetan-3-ylmethoxy)-pyridine-2-carboxylic acid (2,2,2-trifluoro-1-pyridin-2-yl-ethyl)-amide] | > 10000 | 109 | – | – |
| CC(C)CC(NC(=O)c1ccc(N2CC(F)(F)C2)c(OCC2CC2)n1)c1ncccn1 (stereo not shown) [Example 339, 6-Cyclopropylmethoxy-5-(3,3-difluoro-azetidin-1-yl)-pyridine-2-carboxylic acid (3-methyl-1-pyrimidin-2-yl-butyl)-amide] | > 10000 | 64.9 | – | – |
| CC(C)(NC(=O)c1cccc(-c2cccc(Cl)c2)n1)c1ncco1 [Example 8, 6-(3-Chloro-phenyl)-pyridine-2-carboxylic acid (1-methyl-1-oxazol-2-yl-ethyl)-amide] | > 10000 | 99.6 | – | – |
| CNC(=O)[C@H](CC(C)C)NC(=O)c1ccc(C2CC2)c(OCC2CCOCC2)n1 [Example 203, (S)-5-Cyclopropyl-N-(4-methyl-1-(methylamino)-1-oxopentan-2-yl)-6-((tetrahydro-2H-pyran-4-yl)methoxy)picolinamide] | 74.9 | 2.7 | – | – |
| CC(C)(NC(=O)c1ccc(C2CC2)c(OCC2CC2)n1)c1noc(N)n1 [Example 296, 5-Cyclopropyl-6-cyclopropylmethoxy-pyridine-2-carboxylic acid [1-(5-amino-[1,2,4]oxadiazol-3-yl)-1-methyl-ethyl]-amide] | > 10000 | 60.8 | – | – |
| CC(C)C[C@H](NC(=O)c1ccc(C(F)(F)F)c(OCC2CC2)n1)C(N)=O [Example 118, 6-Cyclopropylmethoxy-5-trifluoromethyl-pyridine-2-carboxylic acid ((S)-1-carbamoyl-3-methyl-butyl)-amide] | 1550 | 13.4 | – | – |
| O=C(Nc1ccccc1)c1cccc(-c2cccc(Cl)c2)n1 [Example 19, 6-(3-Chloro-phenyl)-pyridine-2-carboxylic acid phenylamide] | > 10000 | 415 | – | – |
| Cc1nc([C@@H](NC(=O)c2cccc(-c3ccc(F)c(Cl)c3)n2)C2CC2)no1 [Example 260, 6-(3-Chloro-4-fluoro-phenyl)-pyridine-2-carboxylic acid [(−)-cyclopropyl-(5-methyl-[1,2,4]oxadiazol-3-yl)-methyl]-amide] | > 10000 | 24.9 | – | – |
| O=C(N[C@@H](CC1CC1)c1nccs1)c1ccc(C2CCOCC2)c(OCC2CC2)n1 [Example 59, 6-Cyclopropylmethoxy-5-(tetrahydro-pyran-4-yl)-pyridine-2-carboxylic acid ((S)-2-cyclopropyl-1-thiazol-2-yl-ethyl)-amide] | > 10000 | 32.5 | – | – |
| CCC(CC)(NC(=O)c1ccc(C2CC2)c(OCC2CC2)n1)C(=O)N1CCC1 [Example 274, 5-Cyclopropyl-6-cyclopropylmethoxy-pyridine-2-carboxylic acid [1-(azetidine-1-carbonyl)-1-ethyl-propyl]-amide] | 351 | 1.6 | – | – |
| O=C(NN1CCCCC1)c1cccc(-c2ccc(Cl)cc2)n1 [Example 46, 6-(4-Chloro-phenyl)-pyridine-2-carboxylic acid piperidin-1-ylamide] | > 10000 | 290 | – | – |
| CC(C)CC(C)(CO)NC(=O)c1ccc(N2CC(F)(F)C2)c(OCC2CC2)n1 (stereo not shown) [Example 273, 6-Cyclopropylmethoxy-5-(3,3-difluoro-azetidin-1-yl)-pyridine-2-carboxylic acid (1-hydroxymethyl-1,3-dimethyl-butyl)-amide] | – | – | 1250 | 5.4 |
| CC(C)C[C@H](NC(=O)c1ccc(C2CCCO2)c(OCC2CC2)n1)C(N)=O (stereo partly drawn) [Example 115, 6-Cyclopropylmethoxy-5-(tetrahydro-furan-2-yl)-pyridine-2-carboxylic acid ((S)-1-carbamoyl-3-methyl-butyl)-amide] | 953 | 6.6 | – | – |
| COCCOc1nc(C(=O)N[C@@H](CC2CC2)C(N)=O)ccc1C1CC1 [Example 161, 5-Cyclopropyl-6-(2-methoxy-ethoxy)-pyridine-2-carboxylic acid ((S)-1-carbamoyl-2-cyclopropyl-ethyl)-amide] | > 10000 | 124 | – | – |
| CCC(CC)(NC(=O)c1ccc(N2CC(F)(F)C2)c(OCC2CC2)n1)C(=O)N1CC(F)(F)C1 [Example 307, 6-Cyclopropylmethoxy-5-(3,3-difluoro-azetidin-1-yl)-pyridine-2-carboxylic acid [1-(3,3-difluoro-azetidine-1-carbonyl)-1-ethyl-propyl]-amide] | > 10000 | 4.7 | – | – |
| CCC(CC)(NC(=O)c1ccc(C2CCOCC2)c(OCC2CC2)n1)C(=O)NC [Example 85, 6-Cyclopropylmethoxy-5-(tetrahydro-pyran-4-yl)-pyridine-2-carboxylic acid (1-ethyl-1-methylcarbamoyl-propyl)-amide] | > 10000 | 186 | – | – |
